Results on two molecules are retold here after patent publication US10421989B2, “Methods and reagents for riboswitch analysis” (CORNELL UNIVERSITY, priority 2014, dated 2019).

Values joined by “and” are separate entries in the source; they are usually repeats but may differ in a detail not shown here. Equal values may be shown once.

The target of experiment [1] is dye-labeled TPP riboswitch (WT/24-68). Briefly: smFRET titration of TPP, high-FRET state occupancy. The experiment is classed as binding, E. coli. The note with it: TPP 0 to 100 μM, 2 mM Mg2+; fit y=ymax(x/x+Kd); read-out: estimated Kd (apparent dissociation constant). The method, then: FIG. 20. Former tpp The dye-labeled TPP riboswitch (WT/24-68) binds TPP with nanomolar affinity. The affinity of TPP for the WT/24-68 labeled construct was estimated by titrating TPP from 0 to 100 μM in the presence of 2 mM Mg^2+, and quantifying the change in population of fully folded riboswitch molecules (high-FRET state occupancy) as a function of TPP concentration using single-molecule FRET measurements. Shown (black squares) is the average high-FRET state occupancy value (total area under the curve) obtained by fitting population FRET histograms to three Gaussian distributions (low-, intermediate- and high-FRET) over three independent experiments. Each value was normalized to the percent high-FRET state occupancy observed at […]. […]
smFRET data were acquired using a prism-based total internal reflection microscope, where the biotinylated TPP riboswitch was surface immobilized within PEG-passivated, strepatividin-coated quartz microfluidic devices. {Dave R, et al 2009} The Cy3 fluorophore was directly illuminated under 1.5 kW cm^−2 intensity at 532 nm (Laser Quantum). […] Fluorescence data were acquired using MetaMorph acquisition software (Universal Imaging Corporation) at a rate of 66.7 frames per second (15 ms integration). Fluorescence trajectories were selected from the movie files for analysis using automated image analysis software coded in Matlab (The MathWorks). […]

Experiment [2] addresses wild-type (A11AP) preQ1-II riboswitch aptamer construct. In words: 2-aminopurine fluorescence titration of preQ1 binding, wild-type aptamer. On the set-up: species or system Streptococcus pneumoniae R6. The note with it: 0.5 μM RNA, 50 mM KMOPS, 100 mM KCl, Mg2+, 25° C.; 2-aminopurine at position A11. The method, then:
(§1) FIG. 10. A11/2-Aminopurine (A11AP) fluorescence measurements of WT and ΔP3 preQ1-II riboswitch variants. (a) Secondary structure of the WT/A11AP (left) and ΔP3/A11AP (right) preQ1-II variant. (b) Qualitative fluorescence response upon Mg^2+ (4 mM) and subsequent preQ1 addition (10 μM) (λex=308 nm; detection at 372 nm). (c) Fluorescence emission spectra (λex=308 nm) from 320 to 480 nm for each preQ1 concentration. (d) Normalized 2AP fluorescence intensity plotted as a function of preQ1 concentrations, changes in fluorescence (F-F0) were normalized to the maximum fluorescence measured in the absence of ligands. […]
(§2) Experiments were measured on a Cary Eclipse spectrophotometer (Varian) equipped with a peltier block and a magnetic stirring device. […] Spectra were recorded from 320 to 500 nm with excitation wavelength 308 nm and scan rate of 120 nm/min. The apparent binding constants KD were determined by following the increase in fluorescence after each titration step via integration of the area between 330 and 450 nm. Changes in fluorescence (F-F0) were normalized to the maximum fluorescence measured in the absence of ligand. Measurements for each titration step was repeated at least two times and the mean of the normalized fluorescence intensity was plotted against ligand concentration. The final KD value is the arithmetic mean, determined from two to three independent titration experiments.

Experiment [3] concerns the target truncated (ΔP3/A11AP) preQ1-II riboswitch aptamer construct. Briefly: 2-aminopurine fluorescence titration of preQ1 binding, truncated aptamer. On the set-up: species or system Streptococcus pneumoniae R6. The method, then:
as §1, §2

For `Cc1ncc(C[n+]2csc(CCO[P@](=O)(O)OP(=O)(O)O)c2C)c(N)n1` [TPP, thiamine pyrophosphate], the Kd in experiment [1] was ~0.1 µM and 0.115 µM.
As to `NCC1C=Nc2nc(N)[nH]c(=O)c21` (stereo not shown) [preQ1, 7-aminomethyl-7-deazaguanine], the Kd in experiment [2] stood at 0.43 ± 0.01 µM; in experiment [3] (0.5 μM RNA, 50 mM KMOPS, 100 mM KCl, Mg2+, 25° C., 2-aminopurine at position A11), 4.2 ± 0.1 µM. In addition, in experiment [3] (truncated construct vs wild-type), the “decrease in affinity compared to the wild-type (A11AP) aptamer construct” value is reported as 10 fold.
